Measured values reported in patent publication US20130164351A1 (priority 2010, published 2013).

Key:
[1] = tested on: P. aeruginosa strains from cystic fibrosis patients; experiment: Macrobroth dilution MICs against two P. aeruginosa strains; assay type: cell-based, Pseudomonas aeruginosa
[2] = tested on: P. aeruginosa strains PSAR 461, PSAR 468; experiment: Time-kill macrobroth MICs, P. aeruginosa strains PSAR 461 and PSAR 468; assay type: cell-based, Pseudomonas aeruginosa; settings: strain PSAR 468
Experimental: (§1) Susceptibility testing. Original MICs of each strain to CEM-102 and other comparators was tested by CLSI microdilution methodology. Trays were obtained from Trek, Inc., Cleveland, Ohio. Time-kill macrobroth MIC dilution by CLSI was performed for all synergy testing.
(§2) Synergy testing. Two of the MRSA strains were chosen and tested for synergy, together with the four Gram-negative strains mentioned above. Broth macrodilution formed the basis of MICs used in time-kill experiments, as detailed below. The kill kinetics of each drug was tested alone by incubating an initial inoculum of 5×10^5 to 5×10^6 cfu/ml with drug concentrations at the MIC, three dilutions above and three dilutions below the MIC (1/2, 1/4 and 1/8×MIC). Viability counts were performed after 0, 3, 6, 12 and 24 h incubation at 37° C. in a shaking water bath by plating onto trypticase soy-5% sheep blood agar plates.

[3] = tested on: B. cepacia strains BCEP 953, BCEP 954; experiment: Time-kill macrobroth MICs, B. cepacia strains BCEP 953 and BCEP 954; assay type: cell-based, Burkholderia cepacia
Experimental: as §1, §2

[4] = tested on: MRSA strains SA 2230, SA 2232; experiment: Time-kill macrobroth MICs, MRSA strains SA 2230 and SA 2232; assay type: cell-based, Staphylococcus aureus
Experimental: as §1, §2

[5] = tested on: MRSA strains from cystic fibrosis patients; experiment: CLSI microdilution MICs against 40 MRSA strains; assay type: cell-based, Staphylococcus aureus; design: MICs (range): unit not given beside the values
Experimental: Strains. Two strains each of mucoid Pseudomonas aeruginosa (both pyocyanin positive) and 40 MRSA (only one strain with gold colonies), isolated within the past 12 months and beyond from patients at in cystic fibrosis clinic, were tested. Additionally, two B. cepacia strains were acquired from Hershey Medical Center. All strains were identified by standard methods. Only one strain per patient was tested. MLVA was done on all strains, to examine clonality and to ensure that testing was not being limited to only one or a few clones. Strains were stored in skim milk at −70° C. until use.
as §1
MICs were assayed by standard methodology.

[6] = tested on: B. cepacia strains from cystic fibrosis patients; experiment: Macrobroth dilution MICs against two B. cepacia strains; assay type: cell-based, Burkholderia cepacia
[7] = blood; cited from earlier work
[8] = Staphylococcus aureus, microdilution, 40 MRSA strains

NCC[C@H](O)C(=O)N[C@@H]1C[C@H](N)[C@@H](O[C@H]2O[C@H](CN)[C@@H](O)[C@H](O)[C@H]2O)[C@H](O)[C@H]1O[C@H]1O[C@H](CO)[C@@H](O)[C@H](N)[C@H]1O [Amikacin]
MIC Range [1]: 2 to 8 µg/mL

CC(=O)O[C@H]1C[C@@]2(C)[C@@H](C[C@@H](O)[C@H]3[C@@]4(C)CC[C@@H](O)[C@@H](C)[C@@H]4CC[C@@]32C)/C1=C(\CCC=C(C)C)C(=O)[O-].[Na+] [CEM-102, Sodium fusidate]
Time-kill macrobroth MIC [2]: 256 µg/mL | Time-kill macrobroth MIC ([3]; strain BCEP 953): 512 µg/mL | Time-kill macrobroth MIC ([3]; strain BCEP 954): 512 µg/mL | Time-kill macrobroth MIC ([4]; strain SA 2230): 0.5 µg/mL | Time-kill macrobroth MIC ([4]; strain SA 2232): 0.25 µg/mL | MIC50 [5, 8]: 0.12 µg/mL | MIC90 [5, 8]: 0.25 µg/mL | Potency in words ([5]; all strains of MRSA tested): very potent | MIC Range ([5]; microdilution, 40 MRSA strains): 0.12 to 0.5 µg/mL | MIC Range [1]: >64 µg/mL | MIC Range [6]: >64 µg/mL

CCCCCCCCCC(=O)N[C@@H](Cc1c[nH]c2ccccc12)C(=O)N[C@H](CC(N)=O)C(=O)N[C@@H](CC(=O)O)C(=O)N[C@@H]1C(=O)NCC(=O)N[C@@H](CCCN)C(=O)N[C@@H](CC(=O)O)C(=O)N[C@H](C)C(=O)N[C@@H](CC(=O)O)C(=O)NCC(=O)N[C@H](CO)C(=O)N[C@@H]([C@H](C)CC(=O)O)C(=O)N[C@@H](CC(=O)c2ccccc2N)C(=O)O[C@@H]1C [Daptomycin]
MIC Range ([5]; microdilution, 40 MRSA strains): 0.5-1^ μg/ml

CC(=O)O[C@H]1C[C@@]2(C)[C@@H](C[C@@H](O)[C@H]3[C@@]4(C)CC[C@@H](O)[C@@H](C)[C@@H]4CC[C@@]32C)/C1=C(\CCC=C(C)C)C(=O)O [FA, Fusidic Acid]
protein binding [7]: 95-97%

CC(=O)NC[C@H]1CN(c2ccc(N3CCOCC3)c(F)c2)C(=O)O1 [Linezolid]
MICs (range) ([5]; all MRSA strains tested): 1-4 | MIC Range ([5]; microdilution, 40 MRSA strains): 1 to 4 µg/mL

CN(C)c1cc(NC(=O)CNC(C)(C)C)c(O)c2c1C[C@H]1C[C@H]3[C@H](N(C)C)C(O)=C(C(N)=O)C(=O)[C@@]3(O)C(O)=C1C2=O [Tigecycline]
MIC Range ([5]; microdilution, 40 MRSA strains): 0.12 to 0.25 µg/mL

NC[C@H]1O[C@H](O[C@H]2[C@H](O)[C@@H](O[C@H]3O[C@H](CO)[C@@H](O)[C@H](N)[C@H]3O)[C@H](N)C[C@@H]2N)[C@H](N)C[C@@H]1O [Tobramycin, reference compound]
MIC (reason strain not tested in combination) ([4]; strain MRSA 2232): > 512 µg/mL | MIC Range [1]: 0.25 to 1.0 µg/mL

CN[C@H](CC(C)C)C(=O)N[C@H]1C(=O)N[C@@H](CC(N)=O)C(=O)N[C@H]2C(=O)N[C@H]3C(=O)N[C@H](C(=O)N[C@H](C(=O)O)c4cc(O)cc(O)c4-c4cc3ccc4O)[C@H](O)c3ccc(c(Cl)c3)Oc3cc2cc(c3O[C@@H]2O[C@H](CO)[C@@H](O)[C@H](O)[C@H]2O[C@H]2C[C@](C)(N)[C@H](O)[C@H](C)O2)Oc2ccc(cc2Cl)[C@H]1O [Vancomycin]
MIC Range ([5]; microdilution, 40 MRSA strains): 0.5-1^ μg/ml

Teicoplanin
MIC Range ([5]; microdilution, 40 MRSA strains): 0.25 to 1 µg/mL
